Values after ≈ are worked out from the molar mass of the structure shown. Where two headings read alike, the source gives them in different places.
How the values were obtained:
human Topoisomerase II = human Topoisomerase II (Homo sapiens, UniProt P11388); assay: pRYG relaxation assay for topoisomerase II activity; format: biochemical; conditions: compound 1 at 100, 31.6 and 10 µM; reference compounds at 316 and 100 µM
Protocol: Mit diesem Relaxationsassay konnte zusätzlich die inhibitorische Eigenschaft der erfindungsgemäßen Verbindungen auf Topoisomerase II gezeigt werden. Die Testung der erfindungsgemäßen Verbindung 1 erfolgte hierbei bei drei unterschiedlichen Konzentrationen (100, 31.6 und 10 µM). Zum Vergleich setzte man die Referenzverbindungen m-Amsacrin, Paclitaxel (Taxol) und Vincristine bei Konzentrationen von 316 und 100µM ein.
Zu 1µL vorgelegter Testsubstanz (20fach konzentriert in 100% DMSO) werden 2µL 10x Assay Puffer, 0,5µL pRYG DNA (125ng), 0,5µL human Topoisomerase II (1 unit) und 16µL H2O pipettiert und gemischt. Die Reaktionsansätze werden in den auf 37°C vorgeheizten Heizblock gestellt und 30min bei 37°C inkubiert. Die Inkubation wird nach Zugabe von 4µL 5x Stop Puffer abgestoppt. Danach werden 10µL des Ansatzes auf ein 1,2% Agarosegel mit 0,25µg/mL Ethidiumbromid aufgetragen und 2,5h bei 100V aufgetrennt. Zum Schluß wird das Gel unter UV Anregung fotografiert (s. Figur 3). Die Quantifizierung der Inhibierung der pRYG Relaxation erfolgt mit der GelPro®Analyzer Software (s. Figur 4).

[1] = biological target: humaner DNA-Topoisomerase II (Homo sapiens, UniProt P11388); assay: kDNA decatenation assay for topoisomerase II activity; format: biochemical; conditions: compound 1 at 100, 31.6 and 10 µM; reference compounds at 100 µM
Protocol: In diesem von P. Arimondo (Anti-Cancer Drug Design 2000, 15 (6), 413-421) beschriebenen Assay wird kDNA mit humaner DNA-Topoisomerase II in Abwesenheit oder Gegenwart der Testverbindungen behandelt. Die Testung der erfindungsgemäßen Verbindung 1 erfolgte hierbei bei drei unterschiedlichen Konzentrationen (100, 31.6 und 10 µM). Zum Vergleich setzte man eine Positivkontrolle und die Referenzverbindungen m-Amsacrin (m-Amsa), Paclitaxel (Taxol) und Vincristine bei einer jeweiligen Konzentration von 100µM ein.
Zu 1µL vorgelegter Testsubstanz (20fach konzentriert in 100% DMSO) werden 2µL 10x Assay Puffer, 1µL kDNA (200ng), 0,5µL human Topoisomerase II (1unit) und 15,5µL H2O pipettiert und gemischt.
Die Reaktionsansätze werden in den auf 37°C vorgeheizten Heizblock gestellt und 10min bei 37°C inkubiert. Die Inkubation wird nach Zugabe von 4µL 5x Stop Puffer gestoppt und nachfolgend die Substanz mit CIA extrahiert. Danach werden 20µL des Überstandes auf ein 1 % Agarosegel mit 0,25µg/mL Ethidiumbromid aufgetragen und 1 h bei 100V aufgetrennt. Zum Schluss wird das Gel unter UV-Anregung fotografiert (s. Figur 1). Die Quantifizierung der Inhibierung der Decatenation von kDNA erfolgt mit der GelPro®Analyzer Software (s. Figur 2)

KB/HeLa Zellen = assay: Cell cycle analysis (G2/M arrest); format: cell-based; conditions: Homo sapiens, read-out: EC50 in nM (50% cells in G2/M)
Source text: Der Zellzyklus umfasst die Entwicklung der Zelle von einer Zellgeneration zur nächsten.
Während der Ruhephase (G0) und präsynthetischen Phase (G1) besitzt die Zelle einen diploiden Chromosomensatz (2c). In der Synthesephase (S) wird die DNA-Menge durch Replikation vermehrt. Die S-Phase endet mit Erreichen der prämitotischen Phase (G2M), in der die Zelle einen reduplizierten Chromosomenbestand (4c) und verdoppelten DNA-Gehalt aufweist. In der nachfolgenden, kurzdauernden Mitosephase (M) kommt es zur gleichmäßigen Aufteilung der reduplizierten Chromosomen auf zwei Tochterzellen, die dann jeweils wieder einen diploiden DNA Gehalt zeigen und sich in der G01-Phase befinden, so daß der Zellzyklus neu beginnen kann.
Für die Zellzyklusanalyse wurden KB/HeLa Zellen mit den Testsubstanzen in unterschiedlichen Konzentrationen (0.1-1000 nM) 24 Stunden bei 37°C behandelt.
Der prozentuale Anteil der in der G2/M Phase des Zellzyklus arrettierten Zellen nach Behandlung mit Referenz- oder ausgewählten Testsubstanzen ist in der nachfolgenden Tabelle 4 dargestellt. Die Ergebnisse wurden mit einer speziellen Analysesoftware (ModFit™) ausgewertet.

L1210VCR = assay: XTT proliferation assay, resistant L1210; format: cell-based, murine; conditions: Mus musculus, L1210; L1210VCR; read-out: XTT Proliferationsassay, EC50
Source text: (§1) Die Substanzen 1, 2, 4, 9, 11, 12 , 13 und 15 wurden in einem Proliferationstest an etablierten Tumorzelllinien auf ihre anti-proliferative Aktivität hin untersucht (D.A. Scuderio et al. Cancer Res. 1988, 48, 4827-4833). Der verwendete Test bestimmt die zelluläre Dehydrogenase-Aktivität und ermöglicht eine Bestimmung der Zellvitalität und indirekt der Zellzahl. Bei den verwendeten Zelllinien handelt es sich um die humane Cervixkarzinom Zelllinie KB/HeLa (ATCC CCL17), die ovariale Adenokarzinomzelllinie SKOV-3 (ATCC HTB77), die humane Glioblastom Zelllinie SF-268 (NCI 503138) und die Lungenkarzinom Zelllinie NCI-H460 (NCI 503473). Tabelle 1:
(§2) Zur weiteren Charakterisierung wurden die Substanzen 1, 2, 4 und 11 gegenüber multi drug resistenten Zelllinien im Vergleich zu den nicht-resistenten Wildtypzelllinien untersucht.
(§3) Bei den untersuchten Zelllinien handelt es sich um die murine L1210, die akute myeloische Leukaemie Zelllinie LT12 und um die resistenten Linien L1210/mdr und LT12/mdr. Außerdem wurden die murine P388 Zelllinie (methyl-cholanthreneinduced lymphoid neoplasm) sowie die Doxorubicin-resistente P388 als Testsysteme herangezogen.

[2] = system: Doxorubicin-resistente P388; assay: XTT proliferation assay, doxorubicin-resistant P388; format: cell-based, murine; conditions: Mus musculus, P388; P388ADR; read-out: XTT Proliferationsassay, EC50
Source text: as §1, §2, §3

LT12/mdr = assay: XTT proliferation assay, resistant LT12/mdr; format: cell-based; conditions: Rattus norvegicus, LT12; LT12mdr; read-out: XTT Proliferationsassay, EC50
Source text: as §1, §2, §3

Rindertubulin = assay: Inhibition of tubulin polymerisation in vitro; format: biochemical, Rind; conditions: for Hemmwirkung auf die Polymerisation von Tubulin: verbal summary of Table 3; for EC50: cells print µM, head µg/ml, read-out: Hemmung der Tubulin-Polymerisation, EC50
Source text: Die Substanzen 1, 4, 9, 11, 12, 13 und 15 wurden in einem in-vitro Test auf Hemmung der Polymerisation von Rindertubulin getestet (D.M. Bollag et al. Cancer Res. 1995, 55, 2325-2333). In diesem Test wird durch Zyklen von Polymerisation und Depolymerisation aufgereinigtes Tubulin eingesetzt, welches durch Zugabe von GTP und Erwärmung zur Polymerisation gebracht wird. In Tabelle 3 sind die EC50 Werte der Polymerisationshemmung von Tubulin mit 30% assoziierten Proteinen (MAPs) angegeben.

Mamma, MAXF857 = format: in vivo, Mäuse; conditions: 40 mg/kg p.o.; for Todesfällen: dead animals / total
Source text: Die in vivo Aktivität und Verträglichkeit der erfindungsgemäßen Verbindung 2 wurde im Vergleich zu der Substanz 10 in einem weiteren humanen Xenograft-Modell (Mamma, MAXF857) überprüft. Die Ergebnisse werden in der nächsten Tabelle gezeigt: Effect of 2 and 10 on the Mammary Cancer MAXF857 Tabelle 7: […]

Melanom, MEXF462 = format: in vivo, Mäuse; conditions: for Todesfällen: dead animals / total
Source text: Die in vivo Aktivität und Verträglichkeit der erfindungsgemäßen Verbindung 2 wurde im Vergleich zu den Substanzen 10 und 14 in einem humanen Xenograft-Modell (Melanom, MEXF462) überprüft. Die Ergebnisse sind in der nachfolgenden Tabelle 6 zusammengefasst: in vivo Aktivitäten von Verbindung 2, 10 and 14 (Melanom; MEXF462) Tabelle 6: […]

[3] = system: humane Cervixkarzinom Zelllinie KB/HeLa (ATCC CCL17); assay: XTT proliferation assay (cytotoxicity test), KB/HeLa; format: cell-based; conditions: Homo sapiens, read-out: XTT Proliferationsassay, EC50
Source text: as §1, with “503473).” for “503473). Tabelle 1:”

[4] = system: humane Glioblastom Zelllinie SF-268 (NCI 503138); assay: XTT proliferation assay (cytotoxicity test), SF-268; format: cell-based; conditions: Homo sapiens, read-out: XTT Proliferationsassay, EC50
Source text: as §1, with “503473).” for “503473). Tabelle 1:”

[5] = system: ovariale Adenokarzinomzelllinie SKOV-3 (ATCC HTB77); assay: XTT proliferation assay (cytotoxicity test), SKOV-3; format: cell-based; conditions: Homo sapiens, SK-OV-3; SKOV3; read-out: XTT Proliferationsassay, EC50
Source text: as §1, with “503473).” for “503473). Tabelle 1:”

[6] = system: Lungenkarzinom Zelllinie NCI-H460 (NCI 503473); assay: XTT proliferation assay (cytotoxicity test), NCI-H460; format: cell-based; conditions: Homo sapiens, NCl-H460, read-out: XTT Proliferationsassay, EC50
Source text: as §1, with “503473).” for “503473). Tabelle 1:”

[7] = tubulin with 30% associated proteins (MAPs)

Chain of human Topoisomerase II (P11388 whole entry): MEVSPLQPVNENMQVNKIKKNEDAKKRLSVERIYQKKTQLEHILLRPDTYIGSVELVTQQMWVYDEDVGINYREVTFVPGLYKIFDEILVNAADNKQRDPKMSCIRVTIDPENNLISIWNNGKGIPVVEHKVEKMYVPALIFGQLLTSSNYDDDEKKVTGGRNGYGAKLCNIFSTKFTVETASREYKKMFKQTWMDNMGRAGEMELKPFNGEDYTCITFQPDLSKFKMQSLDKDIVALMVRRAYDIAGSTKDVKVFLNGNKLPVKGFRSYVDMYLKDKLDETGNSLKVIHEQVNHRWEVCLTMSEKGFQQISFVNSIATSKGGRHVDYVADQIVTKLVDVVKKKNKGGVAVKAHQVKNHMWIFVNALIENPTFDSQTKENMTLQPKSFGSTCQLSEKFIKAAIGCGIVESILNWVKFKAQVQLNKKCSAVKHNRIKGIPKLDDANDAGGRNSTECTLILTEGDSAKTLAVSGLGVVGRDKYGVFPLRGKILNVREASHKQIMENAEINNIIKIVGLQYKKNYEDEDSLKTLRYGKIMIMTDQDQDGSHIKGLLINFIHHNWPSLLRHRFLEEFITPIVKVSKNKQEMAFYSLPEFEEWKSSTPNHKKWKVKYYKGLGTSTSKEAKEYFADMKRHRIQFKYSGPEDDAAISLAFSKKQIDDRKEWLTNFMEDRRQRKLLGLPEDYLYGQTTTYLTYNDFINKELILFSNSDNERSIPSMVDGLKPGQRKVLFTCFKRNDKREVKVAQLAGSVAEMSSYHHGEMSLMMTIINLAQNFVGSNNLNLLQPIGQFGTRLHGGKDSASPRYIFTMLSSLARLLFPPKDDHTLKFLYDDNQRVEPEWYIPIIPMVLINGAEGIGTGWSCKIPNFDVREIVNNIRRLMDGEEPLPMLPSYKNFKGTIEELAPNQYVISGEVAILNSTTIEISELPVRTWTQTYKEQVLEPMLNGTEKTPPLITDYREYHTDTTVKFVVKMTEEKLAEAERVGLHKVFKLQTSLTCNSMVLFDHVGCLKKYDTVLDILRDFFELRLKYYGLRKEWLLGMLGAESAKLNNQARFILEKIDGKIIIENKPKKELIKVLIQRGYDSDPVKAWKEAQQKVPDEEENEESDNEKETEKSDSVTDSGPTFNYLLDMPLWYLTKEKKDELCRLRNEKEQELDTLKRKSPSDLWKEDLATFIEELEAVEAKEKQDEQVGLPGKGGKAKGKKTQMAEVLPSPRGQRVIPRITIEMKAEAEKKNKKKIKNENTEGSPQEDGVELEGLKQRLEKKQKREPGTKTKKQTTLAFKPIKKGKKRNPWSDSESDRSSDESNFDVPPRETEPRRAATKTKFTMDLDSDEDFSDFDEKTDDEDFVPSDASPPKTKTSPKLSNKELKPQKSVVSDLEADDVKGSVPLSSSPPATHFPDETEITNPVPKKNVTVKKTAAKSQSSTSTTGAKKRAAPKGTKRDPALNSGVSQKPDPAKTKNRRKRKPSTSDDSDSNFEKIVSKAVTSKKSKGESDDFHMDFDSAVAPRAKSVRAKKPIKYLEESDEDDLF
Chain of humaner DNA-Topoisomerase II (P11388 whole entry): as above

CC(=O)O[C@H]1C(=O)[C@@]2(C)[C@H]([C@H](OC(=O)c3ccccc3)[C@]3(O)C[C@H](OC(=O)[C@H](O)[C@@H](NC(=O)c4ccccc4)c4ccccc4)C(C)=C1C3(C)C)[C@]1(OC(C)=O)CO[C@@H]1C[C@@H]2O [Paclitaxel]
Hemmung der Topoisomerase II (Inhibierung der pRYG Relaxation) (human Topoisomerase II): keine inhibitorischen Effekte
Hemmung der Topoisomerase II (Inhibierung der Decatenation von kDNA) [1]: keine inhibitorischen Effekte

O=C(Nc1ccc2[nH]ncc2c1)C(=O)c1cn(Cc2ccc(Cl)cc2)c2ccccc12 [Verbindung 4, 2-[1-(4-Chlor-benzyl)-1H-indol-3-yl]-N-(1H-indazol-5-yl)-2-oxo-acetamid]
EC50 (KB/HeLa Zellen; KB/HeLa cells, 0.1-1000 nM, 24 h at 37°C): 252 nM
EC50 (L1210VCR): 0.241 µg/mL (≈ 0.562 µM)
EC50 [2]: 0.231 µg/mL (≈ 0.539 µM)
EC50 (LT12/mdr): 0.093 µg/mL (≈ 0.217 µM)
Hemmwirkung auf die Polymerisation von Tubulin (Rindertubulin): sehr potente Hemmwirkung

Cc1ccc2cc(NC(=O)C(=O)c3cn(Cc4ccc(Cl)cc4)c4ccccc34)ccc2n1 [Verbindung 9, 2-[1-(4-Chlor-benzyl)-1H-indol-3-yl]-N-(2-methyl-chinolin-6-yl)-2-oxo-acetamid]
Hemmwirkung auf die Polymerisation von Tubulin (Rindertubulin): sehr potente Hemmwirkung

O=C(Nc1ccc2ncccc2c1)C(=O)c1cn(Cc2ccc(Cl)cc2)c2ccccc12 [Verbindung 10, 2-[1-(4-Chlor-benzyl)-1H-indol-3-yl]-2-oxo-N-chinolin-6-yl-acetamid]
Optimale T/C % (Tag) (Mamma, MAXF857; day 10): 6.5% (10)
Todesfällen (Mamma, MAXF857): 2/6
Todesfällen (Mamma, MAXF857; listed as 10 (V)): 2/6 Mäuse tot
Optimale T/C % (Tag) (Melanom, MEXF462; 55 mg/kg p.o., day 14): 0.8% (14)
Todesfällen (Melanom, MEXF462; 55 mg/kg p.o.): 2/6 Mäuse tot
Optimale T/C % (Tag) (Melanom, MEXF462; 70 mg/kg p.o., day 7): 2.3% (7)
Todesfällen (Melanom, MEXF462; 70 mg/kg p.o.): 5/6 Mäuse tot

O=C(Nc1ccc2ncccc2c1)C(=S)c1cn(Cc2ccc(Cl)cc2)c2ccccc12 [Verbindung 11, 2-[1-(4-Chlor-benzyl)-1H-indol-3-yl]-N-chinolin-6-yl-2-thioxo-acetamid]
Hemmung der Tubulin-Polymerisation, EC50 (Rindertubulin; tubulin with 30% associated proteins (MAPs), mean of two independent experiments): 0.97 µg/mL
Hemmwirkung auf die Polymerisation von Tubulin (Rindertubulin): sehr potente Hemmwirkung

O=C(Nc1cccc2cccnc12)C(=O)c1cn(Cc2ccc(Cl)cc2)c2ccccc12 [Verbindung 12, 2-[1-(4-Chlor-benzyl)-1H-indol-3-yl]-2-oxo-N-chinolin-8-yl-acetamid]
EC50 [3]: > 3.16 µg/mL
EC50 [4]: > 3.16 µg/mL
EC50 [5]: > 3.16 µg/mL
EC50 [6]: > 3.16 µg/mL
EC50 (Rindertubulin; [7]): > 10 µM
Hemmwirkung auf die Polymerisation von Tubulin (Rindertubulin): keinen Effekt

O=C(Nc1cccc2cnccc12)C(=O)c1cn(Cc2ccc(Cl)cc2)c2ccccc12 [Verbindung 13, 2-[1-(4-Chlor-benzyl)-1H-indol-3-yl]-N-isochinolin-5-yl-2-oxo-acetamid]
EC50 [3]: > 3.16 µg/mL
EC50 [4]: > 3.16 µg/mL
EC50 [5]: > 3.16 µg/mL
EC50 [6]: > 3.16 µg/mL
EC50 (Rindertubulin; [7]): > 10 µM
Hemmwirkung auf die Polymerisation von Tubulin (Rindertubulin): keinen Effekt

O=C(Nc1ccncc1)C(=O)c1cn(Cc2ccc(Cl)cc2)c2ccccc12 [Verbindung 14, 2-[1-(4-Chlor-benzyl)-1H-indol-3-yl]-2-oxo-N-pyridin-4-yl-acetamid]
EC50 (KB/HeLa Zellen; HeLa, 24 h): > 1000 nM
Optimale T/C % (Tag) (Melanom, MEXF462; 16 mg/kg p.o., day 18): 0.7% (18)
Todesfällen (Melanom, MEXF462; 16 mg/kg p.o.): 3/5 Mäuse tot
Optimale T/C % (Tag) (Melanom, MEXF462; 32 mg/kg p.o., day 7): 14.6% (7)
Todesfällen (Melanom, MEXF462; 32 mg/kg p.o.): 3/5 Mäuse tot

Cc1ccc2cccc(NC(=O)C(=O)c3cn(Cc4ccc(F)cc4)c4ccccc34)c2n1 [Verbindung 15, 2-[1-(4-Fluor-benzyl)-1H-indol-3-yl]-N-(2-methyl-chinolin-8-yl)-2-oxo-acetamid]
EC50 [3]: > 3.16 µg/mL
EC50 [4]: > 3.16 µg/mL
EC50 (Rindertubulin; [7]): > 10 µM
Hemmwirkung auf die Polymerisation von Tubulin (Rindertubulin): keinen Effekt

CC[C@]1(O)C[C@H]2CN(CCc3c([nH]c4ccccc34)[C@@](C(=O)OC)(c3cc4c(cc3OC)N(C=O)[C@H]3[C@@](O)(C(=O)OC)[C@H](OC(C)=O)[C@]5(CC)C=CCN6CC[C@]43[C@@H]65)C2)C1 [Vincristine]
Hemmung der Topoisomerase II (Inhibierung der pRYG Relaxation) (human Topoisomerase II): keine inhibitorischen Effekte
Hemmung der Topoisomerase II (Inhibierung der Decatenation von kDNA) [1]: keine inhibitorischen Effekte

From patent EP1595878A1, “INDOLE DERIVATIVES WITH APOPTOSIS INDUCING ACTIVITY” (Zentaris GmbH, priority 2004, dated 2005)
